Source: PMC11901438, “Synthesis and Evaluation of Boron-Containing Heterocyclic Compounds with Antimicrobial and Anticancer Activities” (Molecules, 2025)
pIC50: −log10 of the molar value. ≈ marks a conversion by molar mass, not a printed value.

Columns and labels:
[1] = test system: SCC-25 cells; test: MTT anticancer assay in SCC-25 cells; format: cell-based; conditions: for pIC50: MTT, 24 h; for SI (selectivity index): NOK-si versus SCC-25
Description: (§1) Boronic acid and benzoboroxole derivatives have been identified as potential anticancer agents. To investigate their efficacy against head and neck cancer cell lines, SCC-25 cells were utilized in this study, as a model for oral squamous cell carcinoma. Additionally, cytotoxicity was performed in normal oral keratinocytes NOK-si cells to evaluate the selective index of the compounds. […] The selectivity of the compounds is quantified by the selectivity index (SI), with those with an SI greater than 3.0 being considered promising for further evaluation, in accordance with internal protocols.
(§2) The SCC-25 was purchased from Rio de Janeiro Cell Bank, and NOK-si was kindly provided by Prof. Carlos Rossa from the School of Dentistry—UNESP. The cell lines were initially thawed and cultured in 25 cm^2 cell culture flasks. Cell growth was monitored using a microscope, and the culture medium was changed periodically. Upon reaching confluency, cell dissociation was achieved by adding 5 mL of trypsin (Sigma-Aldrich, St Louis, MO, USA) and incubating the bottles in a CO2 incubator for 10 min. Subsequently, the cells were transferred to 15 mL Falcon tubes and centrifuged at 2000 rpm for 10 min. Cell counting was performed using a Countess II FL automated cell counter (ThermoFischer, Waltham, MA, USA). The cells were seeded at a density of 30,000 cells per well in 96-well plates. The plates were then incubated at 37 °C in 5% CO2 for 24 h. Following this, test compounds were incubated for another 24 h at 10 different concentrations: 50, 25, 12.5, 6.25, 3.12, 1.56, 0.78, 0.39, 0.19, and 0.097 µg/mL. After the specified time, MTT reagent (3 mg/mL) (Sigma-Aldrich, St Louis, MO, USA) dissolved in phenol-free RPMI 1640 was added and incubated for 4 h. The formed MTT crystals were solubilized using 2-propanol P.A (Sigma-Aldrich, St Louis, MO, USA) with agitation. Absorbance was read at 562 nm using an EZ Read 400 microplate reader (Biochrom, Cambridge, UK) and ADAP 2.0 Biochrom software (version 2.0). IC50 values and graphs were calculated by Dr. Paula Aboud Barbugli using Excel and Prism software (version 10.4.1). The MTT assay results were evaluated for normality using the Shapiro–Wilk test, followed by one-way ANOVA with Tukey’s post hoc test at a significance level of 5%.

[2] = test system: M. tuberculosis H37RV ATCC 27294 strain; test: Resazurin microtiter assay (REMA), MIC90; format: cell-based; conditions: Mycobacterium tuberculosis, cut-off 25 µM
[3] = test system: T. mentagrophytes (ATCC 11481); test: Antifungal susceptibility test (CLSI M38-A2 microdilution, resazurin), MIC90; conditions: Trichophyton mentagrophytes, ATCC11481|ATCC28189, read-out: T. mentagrophytes ATCC 28189 MIC90
[4] = test system: T. rubrum ATCC 28189; test: as above; conditions: Trichophyton rubrum, ATCC28189, read-out: T. rubrum ATCC 28189 MIC90
[5] = test system: NOK-si cells; test: MTT cytotoxicity assay in normal oral keratinocytes NOK-si; format: cell-based; conditions: Keratinocyte, 24 h, read-out: NOK-si IC50
Description: as §1, §2

Structure (SMILES) | pIC50 ([1]; Homo sapiens, SCC-25, 24 h) | SI (selectivity index) [1] | MIC90 [2] [µM] | MIC90 [3] [µM] | MIC90 [4] [µM] | pIC50 [1] | CC50 [5] [µM] | killing effect in SCC-25 cells [1]
O=c1[nH]cc(F)c(=O)[nH]1 [5-fluorouracil, reference compound] | 2.74 | – | – | – | – | – | – | –
O=C(Nc1ccc(N2CCOCC2)c(F)c1)c1cccc(B(O)O)c1 [Compound 33, {3-[(3-Fluoro-4-morpholinophenyl)carbamoyl]phenyl}boronic acid] | – | <1 | > 25 | 363 (≈ 125 µg/mL) | 363 (≈ 125 µg/mL) | – | – | –
O=C(Nc1ccc(N2CCN(c3ccccn3)CC2)c(F)c1)c1ccc(B(O)O)cc1 [Compound 35, [4-({3-Fluoro-4-[4-(pyridin-2-yl)piperazin-1-yl]phenyl}carbamoyl)phenyl]boronic acid] | 4.35 | 3.37 | > 25 | 297 (≈ 125 µg/mL) | 297 (≈ 125 µg/mL) | 4.34 | 221 | –
O=C(Nc1ccc(N2CCN(c3ccccn3)CC2)c(F)c1)c1ccc2c(c1)COB2O [Compound 44, N-{3-fluoro-4-[4-(pyridin-2-yl)piperazin-1-yl]phenyl}-1-hydroxy-1,3-dihydrobenzo[c][1,2]oxaborole-5-carboxamide] | – | <1 | > 25 | 146 (≈ 63.1 µg/mL) | 289 (≈ 125 µg/mL) | – | – | absent killing effect
NNC(=O)c1ccncc1 [Isoniazide, reference compound] | – | – | 0.11 (≈ 0.0151 µg/mL) | – | – | – | – | –
O=C(Nc1ccc(N2CCOCC2)c(F)c1)c1ccc(B(O)O)cc1 [Compound 39, {4-[(3-Fluoro-4-morpholinophenyl)carbamoyl]phenyl}boronic acid] | 4.13 | 1.04 | > 25 | 363 (≈ 125 µg/mL) | 363 (≈ 125 µg/mL) | – | 77.1 | –
O=C(Nc1ccc(N2CCN(c3ncccn3)CC2)c(F)c1)c1ccc(B(O)O)cc1 [Compound 36, [4-({3-Fluoro-4-[4-(pyrimidin-2-yl)piperazin-1-yl]phenyl}carbamoyl)phenyl]boronic acid] | 3.87 | 1.00 | > 25 | 297 (≈ 125 µg/mL) | 297 (≈ 125 µg/mL) | – | 134 | –
O=C(Nc1ccc(N2CCSCC2)c(F)c1)c1ccc(B(O)O)cc1 [Compound 38, {4-[(3-Fluoro-4-thiomorpholinophenyl)carbamoyl]phenyl}boronic acid] | – | <1 | > 25 | 347 (≈ 125 µg/mL) | 347 (≈ 125 µg/mL) | – | 149 | –
O=C(Nc1ccc(N2CCN(c3ccc(F)cc3)CC2)c(F)c1)c1cccc(B(O)O)c1 [Compound 31, [3-({3-Fluoro-4-[4-(4-fluorophenyl)piperazin-1-yl]phenyl}carbamoyl)phenyl]boronic acid] | 4.23 | 3.73 | > 25 | 286 (≈ 125 µg/mL) | 286 (≈ 125 µg/mL) | – | > 221 | –
O=C(Nc1ccc(N2CCN(c3ccc(F)cc3)CC2)c(F)c1)c1ccc(B(O)O)cc1 [Compound 37, [4-({3-Fluoro-4-[4-(4-fluorophenyl)piperazin-1-yl]phenyl}carbamoyl)phenyl]boronic acid] | 4.10 | 1.55 | > 25 | 286 (≈ 125 µg/mL) | 286 (≈ 125 µg/mL) | – | 123 | –
O=C(Nc1ccc(N2CCSCC2)c(F)c1)c1cccc(B(O)O)c1 [Compound 32, {3-[(3-Fluoro-4-thiomorpholinophenyl)carbamoyl]phenyl}boronic acid] | – | <1 | > 25 | 347 (≈ 125 µg/mL) | 347 (≈ 125 µg/mL) | – | – | –
O=C(Nc1ccc(N2CCN(c3ncccn3)CC2)c(F)c1)c1cccc(B(O)O)c1 [Compound 30, [3-({3-Fluoro-4-[4-(pyrimidin-2-yl)piperazin-1-yl]phenyl}carbamoyl)phenyl]boronic acid] | – | <1 | > 25 | 297 (≈ 125 µg/mL) | 297 (≈ 125 µg/mL) | – | – | –
CN(C/C=C/C#CC(C)(C)C)Cc1cccc2ccccc12 [Terbinafine, reference compound] | – | – | – | 2.5e-05 (≈ 7.29e-06 µg/mL) | 0.0001 (≈ 2.91e-05 µg/mL) | – | – | –
